One compound from patent US20200172473A1, “DUAL MODULATORS OF FARNESOID X RECEPTOR AND SOLUBLE EPOXIDE HYDROLASE” (JOHANN WOLFGANG GOETHE-UNIVERSITÄT FRANKFURT AM MAIN, priority 2017, published 2020) can be followed below.

The target in this test is T1, PPARα (Homo sapiens, UniProt Q07869).
T1 construct: pFA-CMV-hPPARα-LBD; expressed in transfected cells; host or cells: HEK293T
T1 sequence (Q07869 239-466 limits assumed): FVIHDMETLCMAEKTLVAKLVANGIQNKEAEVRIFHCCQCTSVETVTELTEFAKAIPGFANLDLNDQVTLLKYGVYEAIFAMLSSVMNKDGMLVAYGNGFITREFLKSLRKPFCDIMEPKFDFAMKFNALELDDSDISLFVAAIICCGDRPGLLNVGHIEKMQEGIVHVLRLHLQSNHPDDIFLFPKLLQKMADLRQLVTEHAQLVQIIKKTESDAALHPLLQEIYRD
In words: Gal4-hybrid reporter gene assay PPARα in HEK293T cells. It is filed as cell-based. The following applies: 10 μM. The source says: Hybrid reporter gene assays for PPARα/γ/δ, LXRα/β, RXRα/β/γ, RARα/β/γ, VDR and PXR Plasmids: The Gal4-fusion receptor plasmids pFA-CMV-hPPARα-LBD^52, pFA-CMV-hPPARγ-LBD^52, pFA-CMV-hPPARδ-LBD^52, pFA-CMV-hLXRα-LBD^32 and pFA-CMV-hLXRβ-LBD^32 have been reported previously. […] Frame and sequence of all fusion receptors were verified by sequencing. pFR-Luc (Stratagene) was used as reporter plasmid and pRL-SV40 (Promega) for normalization of transfection efficiency and cell growth.
Assay procedure: HEK293T cells were grown in DMEM high glucose, supplemented with 10% FCS, sodium pyruvate (1 mM), penicillin (100 U/mL) and streptomycin (100 μg/mL) at 37° C. and 5% CO2. The day before transfection, HEK293T cells were seeded in 96-well plates (2.5·10^4 cells/well). Before transfection, medium was changed to Opti-MEM without supplements. Transient transfection was carried out using Lipofectamine LTX reagent (Invitrogen) according to the manufacturer's protocol with pFR-Luc (Stratagene), pRL-SV40 (Promega) and pFA-CMV-hRXRα-LBD. 5 h after transfection, medium was changed to Opti-MEM supplemented with penicillin (100 U/mL), streptomycin (100 μg/mL), now additionally containing 0.1% DMSO and the respective test compound or 0.1% DMSO alone as untreated control. […] Luminescence was measured with an Infinite M200 luminometer (Tecan Deutschland GmbH). […]

For the compound `CC(C)(C)c1ccc(C(=O)NCc2ccc(NS(C)(=O)=O)cc2Cl)cc1` [compound 57, 4-(tert-Butyl)-N-(2-chloro-4-(methylsulfonamido)benzyl)benzamide], the “activity on PPARα” value is “inactive”.
